Source: patent US8404650B2, “Methods of treating cancer with doxazolidine and prodrugs thereof” (priority 2005, dated 2013)
pIC50: −log10 of the molar value. Where two headings read alike, the source gives them in different places.

Test system: H9c2(2-1) rat cardiomyocytes
Test: Growth inhibition of rat cardiomyocytes as a measure of cardiotoxicity
Assay type: cell-based
Conditions: for pIC50: Rattus norvegicus; for Toxicity to cardiomyocytes compared with Doxorubicin: rat cardiomyocytes
Method: Biological activity of simple Doxazolidine carbamates. Since the prodrug carbamates were designed to be activated by carboxylesterases CES1 (hCE1) and/or CES2 (hiCE), cell lines of interest were measured for expression of the respective mRNAs using reverse transcription (RT) followed by PCR (polymerase chain reaction). Cancer cell lines investigated included SHP-77 resistant small cell lung, DU-145 prostate, MCF-7 sensitive breast, MCF-7/Adr resistant breast, SK-HEP-1 liver, and Hep G2 liver cells. As a measure of possible cardiotoxicity, H9c2(2-1) rat cardiomyocytes were also investigated. Cardiotoxicity is relevant because the ultimate product of metabolism and subsequent hydrolysis of these carbamates is doxorubicin, which is cardiotoxic. […] Additionally, the rat cardiomyocytes, H9c2(2-1), also express more CES2 than CES1.
Cell growth inhibition experiments initially focused on MCF-7, MCF-7/Adr, SK-HEP-1, and Hep G2 cancer cells as well as rat cardiomyocytes as a measure of cardiotoxicity and Vero cells (green monkey kidney cells) as an additional measure of normal cell toxicity. The butyl and pentyl carbamates inhibited the growth of MCF-7, MCF-7/Adr, and SK-HEP-1 cell lines with a 24 h drug treatment period with some selectivity for cancer cells over cardiomyocytes relative to growth inhibition by Dox as shown in Table 2. […] The relative inactivity of the ethyl carbamate may indicate that a substantial lipophilic interaction is required at the active site of the carboxylesterases to hold the Doxaz substrate.
Biological activity of Doxazolidine carbamates with self-eliminating spacer. […] SHP-77 small cell lung cancer cells were also of interest because they express modest amounts of both enzymes. Inhibition of the growth of cardiomyocytes was used as a measure of cardiotoxicity, and inhibition of the growth of Vero cells, green monkey kidney cells, was again used as another measure of toxicity to normal cells. They also show more activity against the cancer cells that express higher levels of CES1. Of particular note is the higher activity against Hep G2 cells than against SK-HEP-1 cells. […] The low toxicity of pentyl PABC-Doxaz to cardiomyocytes relative to the toxicity of Dox is encouraging and consistent with the low level of expression of CES1 in cardiomyocytes.
A more thorough characterization of the growth inhibition of a variety of cancer cells as well as rat cardiomyocytes by Formula IV (aFK-PABC-Doxaz) was evaluated in comparison with inhibition of growth by Doxaz, Dox and aFK-PABC-Dox. Cells were treated with drug for 3 h and colony growth was measured at 3 to 5 days when cells reached about 80% confluence. The cancer cells included one prostate cancer cell line (DU-145), three related breast cancer cell lines (MCF-7, MCF-7/Adr, and MCF-7 uPA), and one pancreatic cancer cell line (Mia PaCa-2). The breast cancer cell lines represent the multi-drug resistant (MDR) phenotype with MCF-7/Adr cells and a cell line that is transfected with the gene for urokinase plasminogen activator (uPA), the primary enzyme responsible for cleavage of plasminogen to plasmin. Rat cardiomyocytes served as a model for comparison of drug cardiotoxicity. Growth inhibition was also measured with added plasmin. aFK-PABC-Doxaz inhibited the growth of most of the cancer cells 0.5 log or more better than did aFK-PABA-Dox. Although not as dramatic, this differential response paralleled the differential response between Doxaz and Dox which is approximately two logs except for the MDR expressing, MCF-7/Adr cells which show more than three logs differential response. […] Addition of 0.01 unit/mL of plasmin has no effect on the activity of Dox but increases the activity of both aFK-PABC-Doxaz and aFK-PABC-Dox, in some cases by more than a log. Addition of 0.01 unit/mL plasminogen increases the activity of aFK-PABC-Doxaz on average by 0.3 log. […]

[1] = H9c2, 3 h, read-out: Growth inhibition IC50, H9c2(2-1), 3 h

SMILES	pIC50 [1]	Toxicity to cardiomyocytes compared with Doxorubicin	other results
CCCCCOC(=O)Nc1ccc(COC(=O)N2COC3C(C)OC(OC4CC(O)(C(=O)CO)Cc5c(O)c6c(c(O)c54)C(=O)c4c(OC)cccc4C6=O)CC32)cc1 (centres unmarked) [Pentyl PABC-Doxaz, Pentyl 4-(N-doxazolidinylcarbonyloxymethyl)phenylcarbamate]	–	–	Growth inhibition IC50, H9c2(2-1), 24 h (24 h drug treatment, crystal violet): −6.2 ± 0.2 log of the molar concentration
COc1cccc2c1C(=O)c1c(O)c3c(c(O)c1C2=O)C[C@@](O)(C(=O)CO)C[C@@H]3O[C@H]1C[C@@H]2NCO[C@@H]2[C@H](C)O1 [Doxaz, Doxazolidine]	7.50	no more cardiotoxic than Doxorubicin	–
COc1cccc2c1C(=O)c1c(O)c3c(c(O)c1C2=O)C[C@@](O)(C(=O)CO)C[C@@H]3OC1CC2C(OCN2CN2COC3C(C)OC(O[C@H]4C[C@](O)(C(=O)CO)Cc5c(O)c6c(c(O)c54)C(=O)c4c(OC)cccc4C6=O)CC32)C(C)O1 (some centres unmarked) [DoxF, Doxoform, reference compound]	–	no more toxic to cardiomyocytes than Doxorubicin	–
COc1cccc2c1C(=O)c1c(O)c3c(c(O)c1C2=O)C[C@@](O)(C(=O)CO)C[C@@H]3O[C@H]1C[C@H](N)[C@H](O)[C@H](C)O1 [Doxorubicin, reference compound]	7.50	–	pIC50 (H9c2, 24 h, read-out: Growth inhibition IC50, H9c2(2-1), 24 h): 7.70; pIC50 (H9c2, read-out: IC50 Rat Cardio., top line of the cell): 7.70
COc1cccc2c1C(=O)c1c(O)c3c(c(O)c1C2=O)C[C@@](O)(C(=O)CO)C[C@@H]3O[C@H]1C[C@H]2[C@H](OCN2C(=O)OCc2ccc(NC(=O)[C@H](CCCCN)NC(=O)[C@H](Cc3ccccc3)NC(=O)[C@@H](C)N)cc2)[C@H](C)O1 [Formula IV, D-Ala-L-Phe-L-Lys-p-aminobenzyloxycarbonyl-Doxaz]	–	–	pIC50 (H9c2, read-out: IC50 Rat Cardio. + plasmin): 7.40
